Key:
[1] = system: hypoxemic rabbits; conditions: cited from earlier work
[2] = Permeation (diffusion) cell: hydrogen peroxide release from UHP/PFC slurry across a flat PLGA membrane; format: physicochemical; conditions: UHP/PFC slurry below, distilled water above
Description: A diffusion cell was constructed in order to measure the release rate of hydrogen peroxide from UHP and its diffusion across a selectively permeable membrane. UHP was dispersed in a PFC liquid and maintained in the bottom half of the cell. Rather than coat the particles, a flat PLGA membrane was used to separate the UHP from distilled water located in the top half of the cell. The PLGA membrane is permeable to water and hydrogen peroxide, but is a very effective barrier to permeation of the PFC. Thus, during the experiment, water diffused across the PLGA membrane and into the PFC/UHP slurry in the bottom half of the cell. Hydrogen peroxide was generated when the water contacted the UHP. The hydrogen peroxide then diffused through the PLGA membrane into the top half of the diffusion cell.
The amount of hydrogen peroxide in the top half of the cell was monitored colorimetrically by testing samples that were periodically removed from the water-rich phase in the top half of the cell. […]

| SMILES | rise in arterial PO2 ([1]; hypoxemic rabbits, intravenous UHP) [mmHg] | outcome at amounts that would supply the oxygen consumption needs of a rabbit ([1]; rabbits, high UHP amounts) | diffusion through the PLGA membrane [2] |
| --- | --- | --- | --- |
| NC(N)=O.OO [UHP, urea hydrogen peroxide] | 10 | died of gas emboli |  |
| NC(N)=O [urea] |  |  | did not diffuse through the membrane |
